Laboratory results reported in US6566587B1, “Mutated 5-enolpyruvylshikimate-3-phosphate synthase, gene coding for said protein and transformed plants containing said gene” (priority 1995, dated 2003).

How the values were obtained:
[1] = tested on: BMS (Black Mexican Sweet) maize cells bombarded with the construction pRPA-RD-130; test: Selection of transformed maize cells on medium containing herbicide; assay type: cell-based; conditions: 2 mM in medium, 8 weeks of selection
Protocol: (§1) BMS (Black Mexican Sweet) maize cells in an exponential growth phase are bombarded with the construction pRPA-RD-130 according to the principle and the protocol described by Klein et al. 1987 (Klein T. M., Wolf E. D., Wu R. and Sandford J. C. (1987): High velocity microprojectiles for delivering nucleic acids into living cells, NATURE Vol. 327 pp. 70-73).
(§2) Two days after bomardment, the cells are transferred to the same medium containing 2 mM N-(phosphonomethyl)glycine.

[2] = tested on: BMS (Black Mexican Sweet) maize cells not bombarded; test: Growth of maize cells on medium containing herbicide; assay type: cell-based; conditions: 2 mM in medium
Protocol: as §1, §2

[3] = target: T1, maize EPSPS mutant Ile102 (Thr 102→Ile) (Zea mays, UniProt O24566, T102I); test: In vitro EPSP synthase activity, inhibition by glyphosate (phosphate liberated); assay type: biochemical; conditions: 10 minutes at 37° C., pH 5.6, 1 mM phosphoenolpyruvate
T1 sequence (O24566 1-444 T102I): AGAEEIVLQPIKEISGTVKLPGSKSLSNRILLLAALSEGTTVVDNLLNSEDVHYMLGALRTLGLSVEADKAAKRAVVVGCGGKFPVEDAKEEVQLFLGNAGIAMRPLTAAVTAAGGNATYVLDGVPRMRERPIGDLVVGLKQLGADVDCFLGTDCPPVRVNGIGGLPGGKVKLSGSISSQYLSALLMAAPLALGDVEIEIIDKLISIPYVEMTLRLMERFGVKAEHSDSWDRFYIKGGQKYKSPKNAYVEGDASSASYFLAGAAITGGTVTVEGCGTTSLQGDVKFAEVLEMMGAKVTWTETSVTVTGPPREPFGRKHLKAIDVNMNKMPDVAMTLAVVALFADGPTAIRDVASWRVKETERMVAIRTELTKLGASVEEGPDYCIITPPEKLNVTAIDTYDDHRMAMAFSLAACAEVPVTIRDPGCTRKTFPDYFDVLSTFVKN
Protocol: (§3) 2.a: Extraction of EPSP synthase The different EPSP synthase genes are introduced in the form of an NcoI-HindIII cassette into the plasmid vector pTro99a (Pharmacia, ref: 27-5007-01) cut with NcoI and HindIII. Recombinant E. coli DH10B bacteria overexpressing the different EPSP synthases are sonicated in 40 ml of buffer per 10 g of pelleted cells, and washed with this same buffer (200 mM Tris-HCl pH 7.8, 50 mM mercaptoethanol, 5 mM EDTA and 1 mM PMSF), to which 1 g of polyvinylpyrrolidone is added. The suspension is stirred for 15 minutes at 4° C. and then centrifuged for 20 minutes at 27,000 g and 4° C.
(§4) Ammonium sulphate is added to the supernatant to bring the solution to 40% saturation with respect to ammonium sulphate. The mixture is centrifuged for 20 minutes at 27,000 g and 4° C. Ammonium sulphate is added to the new supernatant to bring the solution to 70% saturation with respect to ammonium sulphate. The mixture is centrifuged for 30 minutes at 27,000 g and 4° C. The EPSP synthase present in this protein pellet is taken up in 1 ml of buffer (20 mM Tris-HCl pH 7.8 and 50 mM mercaptoethanol). This solution is dialysed overnight against two liters of this same buffer at 4° C.
(§5) The activity of each enzyme, as well as its glyphosate resistance, is measured in vitro over 10 minutes at 37° C. in the following reaction mixture: 100 mM maleic acid pH 5.6, 1 mM phosphoenolpyruvate, 3 mM shikimate 3-phosphate (prepared according to Knowles P. R. and Sprinson D. B. 1970. Methods in Enzymol 17A, 351-352 from Aerobacter aerogenes strain ATCC 25597) and 10 mM potassium fluoride. The enzyme extract is added at the last moment after the addition of glyphosate, the final concentration of which varies from 0 to 20 mM.
(§6) The activity is measured by assaying the phosphate liberated according to the technique of Tausky H. A. and Shorr E. 1953. J. Biol. Chem. 202, 675-685.

[4] = tested on: maize EPSPS mutant Ala101/Ile102 (Gly 101→Ala and Thr 102→Ile); test: as above; assay type: biochemical
Protocol: as §3, §4, §5, §6

[5] = tested on: maize EPSPS mutant Ser106 (Pro 106→Ser); test: as above; assay type: biochemical; conditions: glyphosate 0.12 mM; 10 minutes at 37° C., pH 5.6, 1 mM phosphoenolpyruvate
Protocol: as §3, §4, §5, §6

[6] = tested on: maize EPSPS mutant Ala; test: as above; assay type: biochemical
Protocol: as §3, §4, §5, §6

[7] = tested on: wild-type (WT) maize EPSPS; test: as above; assay type: biochemical; conditions: glyphosate 0.12 mM; 10 minutes at 37° C., pH 5.6, 1 mM phosphoenolpyruvate
Protocol: as §3, §4, §5, §6

[8] = tested on: maize EPSPS mutant Ile102/Ser106 (Thr 102→Ile and Pro 106→Ser); test: as above; assay type: biochemical
Protocol: as §3, §4, §5, §6

[9] = glyphosate concentrations up to 10 mM

For `O=C(O)CNCP(=O)(O)O` [glyphosate, N-(phosphonomethyl)glycine], the “callus development on selection medium” value [1] was “calluses which develop”, the “cell growth on medium containing herbicide” value [2] was “blocked by the herbicide and do not develop” and the IC50 ([3]; read-out: glyphosate concentration producing a 50% inhibition) was 1.2 mM. The “inhibition of enzyme activity” value ([3]; glyphosate 0.12 mM) was “little or no inhibition”, the “inhibition of enzyme activity” value ([4]; glyphosate 0.12 mM) was “little or no inhibition” and the “inhibition of enzyme activity” value ([4]; glyphosate 1.2 mM) was “still not being inhibited”. For the same compound, the “inhibition of enzyme activity” value [4, 9] was “not inhibited”, the “inhibition of enzyme activity” value [5] was 50% and the “inhibition of enzyme activity” value ([6]; glyphosate 1.2 mM) was “still not being inhibited”. For the same compound, the “inhibition of enzyme activity” value [6, 9] was “not inhibited”, the “inhibition of enzyme activity” value [7] was 85% and the “inhibition of enzyme activity” value ([8]; glyphosate 0.12 mM) was “little or no inhibition”. For the same compound, the “inhibition of enzyme activity” value ([8]; glyphosate 1.2 mM) was “still not being inhibited” and the “inhibition of enzyme activity” value ([8]; glyphosate 20 mM) was “not reduced”.
